Experimental data reported in ChEMBL document CHEMBL1629480, “Molecular docking and QSAR study on steroidal compounds as aromatase inhibitors” (Eur J Med Chem, 2010).

Target: T1, Aromatase (Homo sapiens, UniProt P11511)
T1 sequence (P11511 whole entry): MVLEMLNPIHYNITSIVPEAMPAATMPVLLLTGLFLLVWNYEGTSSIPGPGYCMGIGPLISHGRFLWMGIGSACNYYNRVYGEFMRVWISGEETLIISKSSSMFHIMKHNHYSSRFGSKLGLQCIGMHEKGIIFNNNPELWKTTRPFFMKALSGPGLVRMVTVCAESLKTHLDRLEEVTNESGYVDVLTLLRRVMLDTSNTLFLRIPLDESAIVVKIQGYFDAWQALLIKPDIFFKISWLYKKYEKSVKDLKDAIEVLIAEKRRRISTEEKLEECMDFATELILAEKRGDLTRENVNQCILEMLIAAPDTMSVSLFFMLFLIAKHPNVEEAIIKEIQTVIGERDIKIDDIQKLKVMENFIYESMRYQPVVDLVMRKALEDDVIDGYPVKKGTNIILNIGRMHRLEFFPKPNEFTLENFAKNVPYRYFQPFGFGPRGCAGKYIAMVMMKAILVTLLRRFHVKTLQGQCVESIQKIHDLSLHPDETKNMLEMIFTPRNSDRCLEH
Experiment: Inhibition of human placental aromatase
Settings: for pIC50: human

Structure (SMILES)	IC50 [nM]	pIC50 [uM]
CC[C@H]1CCC[C@@]2(C)C1=CC[C@@H]1[C@@H]2CC[C@]2(C)C(=O)CC[C@@H]12	4500	-0.653
C[C@]12CC[C@H]3[C@@H](CC=C4CCCC[C@]43C)[C@@H]1CCC2=O	660	–
C[C@]12CC[C@H]3[C@@H](C[C@@H](O)C4=CCCC[C@@]43CO)[C@@H]1CCC2=O	–	0.027
CC(=O)OC1CCC[C@@]2(C)C1=CC[C@@H]1[C@@H]2CC[C@]2(C)C(=O)CC[C@@H]12 (stereo partly drawn)	–	0
CCCCCC(=O)OC1=C2CC[C@@H]3[C@H](CC[C@]4(C)C(=O)CC[C@@H]34)[C@@]2(C)CCC1	1800	-0.255
C[C@]12CCCC(OC(=O)c3ccccc3)=C1CC[C@@H]1[C@@H]2CC[C@]2(C)C(=O)CC[C@@H]12	640	0.194
CC(=O)OC1=C2CC[C@@H]3[C@H](CC[C@]4(C)C(=O)CC[C@@H]34)[C@@]2(C)CCC1	660	0.18
C[C@]12CC[C@H]3[C@@H](CCC4=CCCC[C@@]43CO)[C@@H]1CCC2=O	–	1.31
C[C@]12CCC(=O)C(O)=C1CC[C@@H]1[C@@H]2CC[C@]2(C)C(=O)CC[C@@H]12 [FORMESTANE]	–	1.377
C[C@]12CCCC(=O)[C@@H]1CC[C@@H]1[C@@H]2CC[C@]2(C)C(=O)CC[C@@H]12	2400	-0.38
CO[C@H]1CCC[C@@]2(CO)C1=CC[C@@H]1[C@@H]2CC[C@]2(C)C(=O)CC[C@@H]12	–	-2.176
C[C@]12CC[C@@H](O)C(=O)[C@@H]1CC[C@@H]1[C@@H]2CC[C@]2(C)C(=O)CC[C@@H]12	–	0.174
CC(=O)OC1CCC[C@@]2(CO)C1=CC[C@@H]1[C@@H]2CC[C@]2(C)C(=O)CC[C@@H]12 (stereo partly drawn)	11000	-1.041
C[C@]12CC[C@H]3O[C@H]3[C@@H]1CC[C@@H]1[C@@H]2CC[C@]2(C)[C@@H](O)CC[C@@H]12	6500	-0.813
C[C@]12CC[C@H]3[C@@H](C[C@H](O)C4=CCCC[C@@]43CO)[C@@H]1CCC2=O	1000	-0.146
C[C@H]1CCC[C@@]2(C)C1=CC[C@@H]1[C@@H]2CC[C@]2(C)C(=O)CC[C@@H]12	1800	-0.255
CC(=O)OC1=C2CC[C@@H]3[C@H](CC[C@]4(C)C(=O)CC[C@@H]34)[C@@]2(CO)CCC1	3600	-0.556
CCC[C@H]1CCC[C@@]2(C)C1=CC[C@@H]1[C@@H]2CC[C@]2(C)C(=O)CC[C@@H]12	5500	-0.74
C[C@]12CCC=C[C@@H]1CC[C@@H]1[C@@H]2CC[C@]2(C)[C@@H](O)CC[C@@H]12	30000	-1.477
CCCC(=O)OC1=C2CC[C@@H]3[C@H](CC[C@]4(C)C(=O)CC[C@@H]34)[C@@]2(C)CCC1	1500	-0.176
C[C@]12CCC(=O)C(O)=C1CC[C@@H]1[C@@H]2CC[C@]2(C)OC(=O)CC[C@@H]12	1850	-0.267
C[C@]12CC[C@H]3O[C@H]3[C@@H]1CC[C@@H]1[C@@H]2CC[C@]2(C)C(=O)CC[C@@H]12	–	0.839
C[C@]12CCC=C[C@@H]1CC[C@@H]1[C@@H]2CC[C@]2(C)C(=O)CC[C@@H]12	225	0.648
